Consider 26 compounds from patent US12492337B2, “Fluorescent probe, preparation method therefor and use thereof” (FLUORESCENCE DIAGNOSIS (SHANGHAI) BIOTECH COMPANY, priority 2017, dated 2025).

Bounds are passed on as bounds.

Data set [1] is described as follows: Viscosity responsiveness: fluorescence intensity in glycerol versus methanol. Format: physicochemical. The following applies: fluorescence intensity in glycerol to that in methanol. The method, then:
The above-mentioned viscosity-responsive fluorescent dye means that the fluorescence intensity of the dye responds to the viscosity of the solution. As the viscosity of the solution increases, the fluorescence intensity increases. Optionally, the viscosity-responsive fluorescent dye is an organic dye molecule which, under the same concentration and excitation wavelength, at 25° C. has a ratio • of the maximum fluorescence emission intensity of the dye in glycerol to the fluorescence intensity in methanol of greater than 2, optionally greater than 5, optionally greater than 10. The concentration of the viscosity-responsive dye ranges from 1×10^−7 M to 1×10^−5 M.

Data set [2] is described as follows: Quantum yield of free probe not reacted with protein tag. The format is physicochemical. As for the experimental part: (§1) A probe was mixed with a corresponding HaloTag protein tag to obtain a mixed sample. The final concentration of the probe in the mixed sample was 5 μM and the final concentration of the protein tag was 10 μM. The mixed sample was incubated at 37° C. for 1 hour, and the sample was detected using a fluorescence spectrophotometer.

The test system of data set [3] is HaloTag protein tag. In words: Probe mixed with HaloTag protein tag, fluorescence spectrophotometer (Example 86). The format is biochemical. The following applies: 5 μM probe, 10 μM protein tag, 37° C., 1 hour; for Fluorescence enhancement: fluorescence activation multiple after binding protein tag; for Emission/nm: fluorescence emission wavelength. The method, then:
as §1

As to `CN(CCOC(=O)NCCOCCOCCCCCCCl)c1ccc(-c2ccc(/C=C(\C#N)C(=O)O)s2)cc1` [Probe 35], in data set [1], the ratio was 972. Moreover, the “The quantum yield of the free probe” value in data set [2] was determined as 0.0012. Further, in data set [3], the “The quantum yield after binding to Halo-tag” value came out at 0.45, the Fluorescence enhancement was determined as 433 and the Emission/nm is 618 nm.
In the same order, the values of `CN(C)c1ccc(-c2ccc(/C=C3\SC(=O)N(CCOCCOCCCCCCCl)C3=O)s2)s1` [Probe 81] are 521, below 0.001, 0.40, 563 and 743 nm.
In the same order, the values of `CN(CCOC(=O)NCCOCCOCCCCCCCl)c1ccc2nc(/C=C(\C#N)C(=O)OC(C)(C)C)sc2c1` [Probe 24] are 1681, below 0.001, 0.52, 590 and 622 nm.
On the same counts, the results for `CN(CCOC(=O)NCCOCCOCCCCCCCl)c1cc2c(s1)-c1sc(C=C(C#N)C#N)cc1[Si]2(C)C` [Probe 37] are 1135, 0.0012, 0.56, 469 and 655 nm.
For `CN(CCOC(=O)NCCOCCOCCCCCCCl)c1ccc(-c2ccc(/C=C(\C#N)C(=O)OC(C)(C)C)s2)cc1` [Probe 33], the ratio in data set [1] is 1781. Besides, the “The quantum yield of the free probe” value in data set [2] is listed as below 0.001. In addition, in data set [3], the “The quantum yield after binding to Halo-tag” value stood at 0.47, the Fluorescence enhancement is 957 and the Emission/nm was 620 nm.
On the same counts, the results for `CN1C(=O)/C(=C/c2ccc(N(C)CCOC(=O)NCCOCCOCCCCCCCl)cc2)N=C1/C=C/c1ccccc1` [Probe 7] are 1455, below 0.001, 0.46, 1502 and 580 nm.
In the same order, the values of `COCCNC(=O)/C(C#N)=C/c1ccc(-c2ccc(N(C)CCOC(=O)NCCOCCOCCCCCCCl)cc2)o1` [Probe 34] are 1774, below 0.001, 0.32, 857 and 615 nm.
In the same order, the values of `CC(C)(C)OC(=O)/C(C#N)=C/c1ccc(N(CCO)CCOC(=O)NCCOCCOCCCCCCCl)cc1` [Probe 4] are 562, below 0.001, 0.42, 490 and 480 nm.
Turning to `CN(CCOC(=O)NCCOCCOCCCCCCCl)c1ccc(C2=C(C#N)C(=C(C#N)C#N)OC2(C)C)cc1` [Probe 8], the ratio in data set [1] came to 320. In data set [2], the “The quantum yield of the free probe” value was determined as 0.0018. In data set [3], the “The quantum yield after binding to Halo-tag” value was 0.47, the Fluorescence enhancement stood at 296 and the Emission/nm turned out to be 535 nm.
In the same order, the values of `CN(CCOC(=O)NCCOCCOCCCCCCCl)c1ccc(C#C/C=C(\C#N)C(=O)OC(C)(C)C)cc1` [Probe 28] are 1132, below 0.001, 0.41, 551 and 566 nm.
Regarding `CN(C)c1cc2c(s1)-c1sc(/C=C3\SC(=S)N(CCOCCOCCCCCCCl)C3=O)cc1C2(C)C` [Probe 79], the ratio in data set [1] amounted to 498. Further, the “The quantum yield of the free probe” value in data set [2] was below 0.001. In addition, in data set [3], the “The quantum yield after binding to Halo-tag” value is 0.51, the Fluorescence enhancement turned out to be 419 and the Emission/nm is recorded as 725 nm.
In the same order, the values of `COCCNC(=S)/C(C#N)=C/c1cc2c(s1)-c1sc(N(C)CCOC(=O)NCCOCCOCCCCCCCl)cc1[Si]2(C)C` [Probe 54] are 391, below 0.001, 0.41, 498 and 710 nm.
With `CN(CCOC(=O)NCCOCCOCCCCCCCl)c1cc2sc(/C=C(\C#N)C(=O)O)cc2s1` [Probe 12], the ratio in data set [1] was found to be 405. Also, the “The quantum yield of the free probe” value in data set [2] came out at 0.0012. In data set [3], the “The quantum yield after binding to Halo-tag” value came to 0.41, the Fluorescence enhancement was 750 and the Emission/nm was 555 nm.
On the same counts, the results for `CN(CCOC(=O)NCCOCCOCCCCCCCl)c1ccc(/C=C(\C#N)C(=O)OC(C)(C)C)cc1` [Probe 1] are 560, below 0.001, 0.52, 500 and 480 nm.
In the same order, the values of `CN(C)c1ccc(-c2ccc(/C=C(\C#N)C(=S)NCCOCCOCCCCCCCl)s2)s1` [Probe 84] are 522, below 0.001, 0.47, 431 and 680 nm.
On the same counts, the results for `CN1C(=O)/C(=C/c2ccc(N(C)CCOC(=O)NCCOCCOCCCCCCCl)cc2)N=C1c1ccccc1` [Probe 6] are 1183, below 0.001, 0.40, 989 and 530 nm.
`CN(CCOC(=O)NCCOCCOCCCCCCCl)c1ccc2cc(/C=C(\C#N)C(=O)O)sc2c1` [Probe 18]: in data set [1], the ratio came out at 301. For the same compound, in data set [2], the “The quantum yield of the free probe” value is listed as 0.0017. In data set [3], the “The quantum yield after binding to Halo-tag” value is 0.51, the Fluorescence enhancement amounted to 444 and the Emission/nm came out at 568 nm.
As for `CN(CCO)c1ccc2cc(/C=C(\C#N)C(=O)NCCOCCOCCCCCCCl)sc2c1` [Probe 65], the ratio in data set [1] is 391. The “The quantum yield of the free probe” value in data set [2] is reported as below 0.001. In addition, in data set [3], the “The quantum yield after binding to Halo-tag” value is 0.66, the Fluorescence enhancement amounted to 798 and the Emission/nm is recorded as 570 nm.
In the same order, the values of `COCCNC(=S)/C(C#N)=C/c1cc2c(s1)-c1sc(N(C)CCOC(=O)NCCOCCOCCCCCCCl)cc1C2(C)C` [Probe 52] are 270, below 0.001, 0.47, 435 and 670 nm.
For `CC1=N/C(=C\c2cc3ccc(N(C)CCOC(=O)NCCOCCOCCCCCCCl)cc3s2)C(=O)N1C` [Probe 17], the ratio in data set [1] worked out at 402. The “The quantum yield of the free probe” value in data set [2] was below 0.001. Also, in data set [3], the “The quantum yield after binding to Halo-tag” value is on record as 0.56, the Fluorescence enhancement amounted to 498 and the Emission/nm stood at 575 nm.
As to `CN1C(=O)/C(=C\c2cc3c(s2)-c2sc(N(C)CCOC(=O)NCCOCCOCCCCCCCl)cc2C3(C)C)SC1=S` [Probe 55], the ratio in data set [1] was determined as 211. Also, the “The quantum yield of the free probe” value in data set [2] is on record as below 0.001. For the same compound, in data set [3], the “The quantum yield after binding to Halo-tag” value stood at 0.39, the Fluorescence enhancement turned out to be 382 and the Emission/nm is recorded as 660 nm.
In the same order, the values of `CN(CCOC(=O)NCCOCCOCCCCCCCl)c1cc2sc3cc(/C=C(\C#N)C(=O)OC(C)(C)C)sc3c2s1` [Probe 29] are 998, below 0.001, 0.53, 621 and 640 nm.
With `CN(CCOC(=O)NCCOCCOCCCCCCCl)c1cc2c(s1)-c1sc(/C=C(\C#N)c3nc4ccccc4o3)cc1C2(C)C` [Probe 49], the ratio in data set [1] is 334. Besides, the “The quantum yield of the free probe” value in data set [2] is below 0.001. Also, in data set [3], the “The quantum yield after binding to Halo-tag” value is 0.54, the Fluorescence enhancement turned out to be 541 and the Emission/nm is listed as 680 nm.
Consider `CN(CCOC(=O)NCCOCCOCCCCCCCl)c1cc2c(s1)-c1sc(/C=C(\C#N)C(=O)OC(C)(C)C)cc1C2(C)C` [Probe 48], for which the ratio in data set [1] was 480. Further, in data set [2], the “The quantum yield of the free probe” value is recorded as below 0.001. Besides, in data set [3], the “The quantum yield after binding to Halo-tag” value worked out at 0.57, the Fluorescence enhancement is 428 and the Emission/nm came out at 645 nm.
On the same counts, the results for `CN(C)c1cc2c(s1)-c1sc(/C=C3\SC(=O)N(CCOCCOCCCCCCCl)C3=O)cc1C2(C)C` [Probe 78] are 452, below 0.001, 0.41, 369 and 660 nm.
On the same counts, the results for `COCCNC(=O)/C(C#N)=C/c1ccc(-c2ccc(N(C)CCOC(=O)NCCOCCOCCCCCCCl)s2)s1` [Probe 41] are 101, 0.0015, 0.44, 418 and 700 nm.
